Laboratory results as given in PubChem BioAssay (NCI).
Values joined by “and” are separate entries in the source; they are usually repeats but may differ in a detail not shown here. Equal entries are not always repeated.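 Assay format: 96-well plates, 48-hour exposure. The concentration for 50% growth inhibition is given as GI50. At the TGI there is no net growth.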

What was measured:
Test in all cases: NCI tumour cell line growth inhibition, 48 h
OVCAR-3 ovarian = tested on: OVCAR-3 ovarian
SW-620 colon = tested on: SW-620 colon
MCF7 breast = tested on: MCF7 breast
M14 melanoma = tested on: M14 melanoma
PC-3 prostate = tested on: PC-3 prostate
HCC-2998 colon = tested on: HCC-2998 colon
HOP-92 NSCLC = tested on: HOP-92 NSCLC
SF-539 CNS = tested on: SF-539 CNS
NCI-H226 lung = tested on: NCI-H226 lung
IGROV1 ovarian = tested on: IGROV1 ovarian

Row | SMILES | TGI (OVCAR-3 ovarian) | TGI (SW-620 colon) [µM] | TGI (MCF7 breast) | TGI (M14 melanoma) [µM] | TGI (PC-3 prostate) [µM] | TGI (HCC-2998 colon) | TGI (HOP-92 NSCLC) [µM] | TGI (SF-539 CNS) | TGI (NCI-H226 lung) | TGI (IGROV1 ovarian) | GI50 (OVCAR-3 ovarian) | GI50 (SW-620 colon) | GI50 (MCF7 breast) | GI50 (HCC-2998 colon) | GI50 (IGROV1 ovarian) | GI50 (HOP-92 NSCLC) | GI50 (NCI-H226 lung)
1 | COc1ccc(/C=C/C(=O)N[C@@H]2C(=O)N3[C@@H]2SC(C)(C)[C@@H]3C(=O)O)cc1OC | > 100 µM | > 100 | > 100 µM | > 100 | > 100 | > 100 µM | > 100 | > 100 µM | > 100 µM |  |  |  |  |  |  |  | 
2 | CCCCCC(=O)OC[n+]1ccc(-c2c(COC(=O)NC(C)C)c(COC(=O)NC(C)C)c3n2CCC3)cc1 | > 100 µM | > 100 | > 100 µM | > 100 | > 100 | > 100 µM | > 100 | > 100 µM | > 100 µM | > 100 µM |  |  |  |  |  |  | 
3 | O=C(O)COc1cccc2ccccc(=O)c12 | > 100 µM | > 100 | > 100 µM | > 100 | > 100 | > 100 µM | > 100 | > 100 µM | > 100 µM | > 100 µM |  |  |  |  |  |  | 
4 | COC(=O)CCC(=O)c1ccc2c(c1)CC1(Cc3ccccc3C1)C2 | > 100 µM |  | > 100 µM | > 100 | > 100 | > 100 µM | > 100 | > 100 µM | 94.9 µM | > 100 µM |  |  |  |  |  |  | 
5 | CCN(CC)CCCNc1c2cc(OC)ccc2nc2cccc([N+](=O)[O-])c12 | 0.176 µM | 0.339 | 0.22 µM | 0.24 | 0.224 | 0.192 µM | 0.239 | 0.304 µM | 0.51 µM | 0.387 µM |  |  |  |  |  |  | 
6 | Cc1nc2ccccc2n1Cc1ccc(NC(=S)NC2CCCCC2)cc1 | > 70.3 µM | > 100 | 72.3 µM | > 100 | > 100 | > 100 µM | > 100 | > 100 µM | > 100 µM | > 100 µM |  |  |  |  |  |  | 
7 | NCCCCNCCCNC(=O)c1csc(-c2nc(CCN)sc2Cl)n1 | > 100 µM | > 100 | > 100 µM | > 100 | > 100 | > 100 µM | 79.5 | > 100 µM | > 100 µM | > 100 µM |  |  |  |  |  |  | 
8 | COC(=O)/C=C/c1cc(OC)c2c(c1)C(C(=O)OC)C(c1ccc(O)c(OC)c1)O2 (stereo not drawn) | > 27 µM and > 25.6 µM and 19.8 µM | > 100 | > 100 µM and > 69.5 µM and 42.9 µM | > 100 | > 100 | 48.4 µM and 25.6 µM and 21 µM | > 100 | 9.24 µM and 8.25 µM and 10.4 µM | > 100 µM and > 88.2 µM and 12.7 µM | > 100 µM and 35.2 µM | 4.97 µM and 3.89 µM and 2 µM | 2.93 µM and 1.45 µM and 1.46 µM | 1.9 µM and 2.05 µM and 0.69 µM | 24.5 µM and 10.6 µM and 5.69 µM | 4.9 µM and 2.61 µM and 2.09 µM | > 37.2 µM and 12.4 µM and 16.9 µM | 32.9 µM and 10.3 µM and 4.53 µM
9 | NC(=O)NC(=O)c1cccc(C(=O)NC(N)=O)n1 | > 100 µM | > 100 | > 100 µM | > 100 | > 100 | > 100 µM | > 100 | > 100 µM | > 100 µM |  |  |  |  |  |  |  | 
10 | CCOc1ccnc2c(OC)c(C)c3nc4ccccc4nc3c12 | > 100 µM | > 100 | > 100 µM | > 100 | > 100 | > 100 µM | > 100 | > 100 µM | > 100 µM | > 100 µM |  |  |  |  |  |  | 
11 | Cc1ccc(S(=O)(=O)N/N=C2/C3CC4CCC2C4C3)cc1 (stereo not drawn) | > 100 µM | > 100 | > 100 µM | > 100 | > 100 | > 100 µM | > 100 | > 100 µM | > 100 µM | > 100 µM |  |  |  |  |  |  | 
12 | O=C1N(c2ccccc2)N=C2c3ccncc3C3=NN(c4ccccc4)C(=O)C123 (stereo not drawn) | > 100 µM | > 100 | > 100 µM | > 100 | > 100 | > 88 µM | > 100 | > 46.8 µM | > 100 µM | > 100 µM |  |  |  |  |  |  | 
13 | C=CCOC1=C(OC(C)=O)C(C2COC(C)(C)O2)OC1=O (stereo not drawn) | 31.9 µM | 32.7 | 32.8 µM | 53.8 | > 100 | > 100 µM | 34.5 | > 100 µM | > 100 µM | > 100 µM |  |  |  |  |  |  | 
14 | CCOC(=O)C1=CN(Cc2ccccc2)C2ON=C(c3ccc(Cl)cc3)C2C1 (stereo not drawn) | > 67.1 µM | > 65.7 | > 64.6 µM | > 66.9 | > 53.5 | > 100 µM | > 100 | > 68.2 µM | > 74.3 µM | > 50.5 µM |  |  |  |  |  |  | 
15 | Cc1cc(NS(=O)(=O)c2ccc(N=Nc3c(Nc4ccccc4)nn(-c4ccc(S(=O)(=O)Nc5ccncn5)cc4)c3C)cc2)no1 | > 100 µM |  | > 100 µM | > 100 | > 100 | > 100 µM | > 100 | > 100 µM | > 100 µM | > 100 µM |  |  |  |  |  |  | 
